Measured values reported in patent US20250188079A1, “INHIBITING CYCLIC AMP-RESPONSIVE ELEMENT-BINDING PROTEIN (CREB)” (Forma Therapeutics, Inc., priority 2019, published 2025).

target: CBP (Homo sapiens (Human), UniProt Q92793); assay: HTRF biochemical assay for CBP activity (TR-FRET, bromodomain); type: binding; conditions: geometric mean, 10-point 3-fold dilution 33 μM to 1.7 nM, read-out: BROMO IC50 TRF TB CBP (μM gmean)
How it was run: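 Compounds were tested as 10-point, 3-fold dilutions (33 μM to 1.7 nM final) against CBP protein and peptide ligand in pH 7.5 Hepes buffer with GSH, BGG, BSA and Triton X-100 at room temperature for varying times. The TR-FRET 520/490 ratio gave % inhibition versus no-enzyme and DMSO controls, and IC50 came from 4-parameter logistic fits.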

Chain of CBP (Q92793 1085-1192): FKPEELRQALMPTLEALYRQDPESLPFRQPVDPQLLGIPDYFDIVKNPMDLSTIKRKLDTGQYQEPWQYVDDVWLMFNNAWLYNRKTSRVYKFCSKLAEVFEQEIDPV

Molecule | IC50
COC(=O)N1CCc2ccc3c(nc(-c4ccccn4)n3[C@@H](C)Cc3ccccc3)c2C1 [Compound 159] | 0.001 to 0.01 µM
COC(=O)N1CCc2ccc3c(nc([C@H]4CC[C@H](C(=O)O)CC4)n3[C@H](C)Cc3ccc4c(c3)CCO4)c2C1 [Compound 332] | 0.1 to 1 µM
COC(=O)N1CCc2ccc3c(nc(C4CCCCC4)n3C[C@@H]3CCCC[C@H]3C(=O)O)c2C1 [Compound 227] | 0.01 to 0.1 µM
COC(=O)N1CCc2c(C(=O)O)cc3c(nc(C4CCCCC4)n3[C@H](C)Cc3ccccc3)c2C1 [Compound 300] | 0.1 to 1 µM
COC(=O)N1CCc2ccc3c(nc(N4CCOCC4)n3[C@@H](C)Cc3cccc(C(=O)O)c3)c2C1 [Compound 182] | 0.01 to 0.1 µM
COC(=O)N1CCc2ccc3c(nc([C@@H]4CCCOC4)n3C[C@H](C(=O)O)c3ccccc3)c2C1 [Compound 257] | 0.01 to 0.1 µM
COC(=O)N1CCc2ccc3c(nc(-c4ccc(C(=O)O)c(OC)c4)n3[C@@H](C)Cc3ccccc3)c2C1 [Compound 208] | 0.01 to 0.1 µM
COC(=O)N1CCc2ccc3c(nc(N4CCC(C(=O)O)CC4)n3[C@H](C)Cc3ccccc3)c2C1 (single isomer, unassigned) [Compound 325] | 0.1 to 1 µM
COC(=O)N1CCc2ccc3c(nc(N4CCC(C(=O)O)CC4)n3[C@H](C)Cn3cc(C(F)(F)F)cn3)c2C1 [Compound 285] | 0.01 to 0.1 µM
COC(=O)N1CCc2ccc3c(nc(C4CCCCC4)n3C[C@H](C(=O)O)c3cc(F)c(Cl)cc3OC)c2C1 (single isomer, unassigned) [Compound 229] | 0.01 to 0.1 µM
COC(=O)N1CCc2ccc3c(nc(C4CCCCC4)n3C[C@@H](C(=O)O)c3cc(F)c(Cl)cc3OC)c2C1 (single isomer, unassigned) [Compound 32] | 0.001 to 0.01 µM
COC(=O)N1CCc2ccc3c(nc([C@H]4CC[C@@H](C(=O)O)C4)n3[C@@H](C)Cc3ccccc3C)c2C1 [Compound 218] | 0.01 to 0.1 µM
COC(=O)N1CCc2ccc3c(nc(C4CCN(C(=O)CO)CC4)n3[C@@H](C)Cc3ccccc3)c2C1 [Compound 106] | 0.001 to 0.01 µM
COC(=O)N1CCc2ccc3c(nc([C@H]4CC[C@H](C(=O)O)CC4)n3[C@H](C)Cc3cccnc3)c2C1 [Compound 111] | 0.001 to 0.01 µM
COC(=O)N1CCc2ccc3c(nc(C4CCN(S(N)(=O)=O)CC4)n3[C@H](C)Cc3ccccc3)c2C1 [Compound 330] | 0.1 to 1 µM
COC(=O)N1CCc2ccc3c(nc(C4CCCCC4)n3C[C@H](C(=O)O)c3ccc(F)c(OC)c3)c2C1 [Compound 9] | 0.001 to 0.01 µM
COC(=O)N1CCc2ccc3c(nc(-c4ccc(C(=O)O)cc4)n3[C@H](C)Cc3ccccc3)c2C1 [Compound 279] | 0.01 to 0.1 µM
COC(=O)N1CCc2ccc3c(nc(C4CCCCC4)n3C[C@H](CC(=O)O)c3ccc(F)c(F)c3)c2C1 [Compound 70] | 0.001 to 0.01 µM
COC(=O)N1CCc2ccc3c(nc([C@H]4CC[C@H](C(=O)O)CC4)n3C(=O)N(C)c3ccccc3)c2C1 [Compound 292] | 0.1 to 1 µM
COC(=O)N1CCc2ccc3c(nc(N4CCN(C(=O)C5COC5)CC4)n3[C@@H](C)Cc3ccccc3)c2C1 [Compound 337] | 0.1 to 1 µM
COC(=O)N1CCc2ccc3c(nc(N4CCN(C(=O)CO)CC4)n3[C@@H](C)Cc3ccccc3)c2C1 [Compound 164] | 0.001 to 0.01 µM

Molecule | IC50
COC(=O)N1CCc2ccc3c(nc([C@H]4CCC[C@@H](C(=O)O)C4)n3[C@@H](C)Cc3ccccc3)c2C1 (single isomer, unassigned) [Compound 13] | 0.001 to 0.01 µM
COC(=O)N1CCc2ccc3c(nc(C4CCCCC4)n3C[C@H](CC(=O)O)c3cc(F)cc(F)c3)c2C1 [Compound 37] | 0.001 to 0.01 µM
COC(=O)N1CCc2ccc3c(nc(-c4cccc(CC(=O)O)c4)n3[C@@H](C)Cn3cc(Cl)cn3)c2C1 [Compound 113] | 0.001 to 0.01 µM
COC(=O)N1CCc2ccc3c(nc(C4CCCCC4)n3[C@@H](CC(=O)O)c3ccccc3)c2C1 [Compound 213] | 0.01 to 0.1 µM
COC(=O)N1CCc2ccc3c(nc(C45CC(C4)C5)n3C[C@@H](C(=O)O)c3ccccc3)c2C1 [Compound 246] | 0.01 to 0.1 µM
COC(=O)N1CCc2ccc3c(nc(C4CCCCC4)n3CCc3ccc(OC)c(C(=O)O)c3)c2C1 [Compound 242] | 0.01 to 0.1 µM
COC(=O)N1CCc2ccc3c(nc(C4CCCCC4)n3C[C@@H](CC(=O)O)c3ccc(F)c(F)c3)c2C1 [Compound 4, (3S)-4-[2-cyclohexyl-8-(methoxycarbonyl)-3H,6H,7H,8H,9H-imidazo[4,5-h]isoquinolin-3-yl]-3-(3,4-difluorophenyl)butanoic acid] | 0.001 to 0.01 µM
COC(=O)N1CCc2ccc3c(nc([C@H]4CC[C@H](C(=O)O)CC4)n3C3(Cc4ccccc4)COC3)c2C1 [Compound 271] | 0.01 to 0.1 µM
COC(=O)N1CCc2ccc3c(nc([C@H]4CCC[C@H](C(=O)O)C4)n3C[C@H]3CC[C@@H](OC)CC3)c2C1 [Compound 245] | 0.01 to 0.1 µM
COC(=O)N1CCc2ccc3c(nc(-c4cccc(C(C)(C)C(=O)O)c4)n3[C@H](C)Cn3cc(Cl)cn3)c2C1 [Compound 320] | 0.1 to 1 µM
COC(=O)N1CCc2c(C#N)cc3c(nc([C@H]4CC[C@H](C(=O)O)CC4)n3CCc3ccccc3)c2C1 [Compound 121] | 0.001 to 0.01 µM
COC(=O)N1CCc2ccc3c(nc([C@H]4CC[C@](C)(C(=O)O)CC4)n3[C@H](C)Cn3cc(Cl)cn3)c2C1 [Compound 309] | 0.1 to 1 µM
COC(=O)N1CCc2ccc3c(nc(N4CCN(S(C)(=O)=O)CC4)n3[C@H](C)Cn3cc(Cl)cn3)c2C1 [Compound 343] | 0.1 to 1 µM
COC(=O)N1CCc2ccc3c(nc(C4CCNCC4)n3CCc3ccccc3)c2C1 [Compound 345] | 0.1 to 1 µM
COC(=O)N1CCc2ccc3c(nc([C@H]4CCCOC4)n3C[C@@H](C(=O)O)c3ccc(C)cc3)c2C1 [Compound 58] | 0.001 to 0.01 µM
COC(=O)N1CCc2ccc3c(nc(C4CCC(C(=O)O)CC4)n3[C@H](C)C[C@]3(C)CC[C@H](OC)CC3)c2C1 (some centres unmarked) [Compound 175] | 0.01 to 0.1 µM
COC(=O)N1CCc2ccc3c(nc(N4CCNCC4)n3[C@H](C)Cc3ccccc3)c2C1 [Compound 347] | 1 to 1000 µM
COC(=O)N1CCc2c(C(=O)O)cc3c(nc(N4CCCCC4)n3C[C@@H](C)c3ccccc3)c2C1 [Compound 103] | 0.001 to 0.01 µM
COC(=O)N1CCc2ccc3c(nc(-c4cccc([C@](C)(O)C(=O)O)c4)n3[C@H](C)Cc3ccccc3)c2C1 [Compound 140] | 0.001 to 0.01 µM
COC(=O)N1CCc2ccc3c(nc([C@H]4CC[C@H](C(=O)O)CC4)n3[C@H](C)Cc3cccc(C)c3)c2C1 [Compound 334] | 0.1 to 1 µM
COC(=O)N1CCc2ccc3c(nc([C@@H]4CCC[C@@H](C(=O)O)C4)n3[C@H](C)Cc3ccccc3Cl)c2C1 (single isomer, unassigned) [Compound 263] | 0.01 to 0.1 µM

Molecule | IC50
COC(=O)N1CCc2ccc3c(nc(C4CCCCC4)n3C[C@@H](CC(=O)O)c3ccccc3)c2C1 [Compound 8] | 0.001 to 0.01 µM
COC(=O)N1CCc2ccc3c(nc([C@@H]4CCC[C@@H](C(=O)O)C4)n3C[C@@H](C)c3ccc(F)c(F)c3)c2C1 (single isomer, unassigned) [Compound 148] | 0.001 to 0.01 µM
COC(=O)N1CCc2ccc3c(nc(N4CCN(S(C)(=O)=O)CC4)n3[C@@H](C)Cn3cc(Cl)cn3)c2C1 [Compound 66] | 0.001 to 0.01 µM
COC(=O)N1CCc2ccc3c(nc([C@@H]4CCC[C@@H](C(=O)O)C4)n3[C@H](C)Cc3ccccc3C)c2C1 (single isomer, unassigned) [Compound 284] | 0.01 to 0.1 µM
COC(=O)N1CCc2ccc3c(nc(N4CCC(C(=O)O)CC4)n3[C@H](C)Cc3cc(F)cc(F)c3)c2C1 [Compound 308] | 0.1 to 1 µM
COC(=O)N1CCc2ccc3c(nc(C4CCCCC4)n3CC[C@H]3CCC[C@@H](C(=O)O)C3)c2C1 [Compound 177] | 0.01 to 0.1 µM
COC(=O)N1CCc2ccc3c(nc(C4CCCCC4)n3[C@H](C)Cc3cccc(C(=O)O)c3)c2C1 [Compound 294] | 0.1 to 1 µM
COC(=O)N1CCc2ccc3c(nc(C4CCCCC4)n3C[C@@H](C(=O)O)c3ccccc3)c2C1 [Compound 197] | 0.01 to 0.1 µM
COC(=O)N1CCc2ccc3c(nc([C@@H]4CCC[C@@H](C(=O)O)C4)n3CC[C@H]3CC[C@H](OC)CC3)c2C1 [Compound 156] | 0.001 to 0.01 µM
COC(=O)N1CCc2ccc3c(nc(N4CCCCC4)n3C[C@@H](CC(=O)O)c3ccccc3)c2C1 [Compound 47] | 0.001 to 0.01 µM
COC(=O)N1CCc2ccc3c(nc(N4CCC(C(=O)O)CC4)n3[C@@H](C)Cc3ccccc3)c2C1 (single isomer, unassigned) [Compound 5] | 0.001 to 0.01 µM
COC(=O)N1CCc2ccc3c(nc(C4CCCC4)n3C[C@H](C(=O)O)c3ccccc3)c2C1 [Compound 55] | 0.001 to 0.01 µM
COC(=O)N1CCc2ccc3c(nc([C@H]4CC[C@H](C(=O)O)CC4)n3[C@@H](C)CC3CCCCC3)c2C1 [Compound 200] | 0.01 to 0.1 µM
COC(=O)N1CCc2ccc3c(nc([C@H]4CC[C@@H](OC)CC4)n3C[C@@H](C(=O)O)c3ccccc3)c2C1 [Compound 64] | 0.001 to 0.01 µM
COC(=O)N1CCc2ccc3c(nc([C@H]4CC[C@@](C)(C(=O)O)CC4)n3[C@@H](CO)Cc3ccccc3)c2C1 [Compound 341] | 0.1 to 1 µM
COC(=O)N1CCc2ccc3c(nc([C@H]4CC[C@H](C(=O)O)CC4)n3[C@H](C)C[C@@H]3CCCOC3)c2C1 [Compound 212] | 0.01 to 0.1 µM
(3R)-4-[2-cyclohexyl-8-(methoxycarbonyl)-3H,6H,7H,8H,9H-imidazo[4,5-h]isoquinolin-3-yl]-3-(3-fluoro-5-methoxyphenyl)butanoic acid [Compound 194] | 0.01 to 0.1 µM
COC(=O)N1CCc2ccc3c(nc(C4CCCCC4)n3[C@H](CC(=O)O)c3ccccc3)c2C1 [Compound 180] | 0.01 to 0.1 µM
COC(=O)N1CCc2ccc3c(nc(C4CCCCC4)n3C[C@H](C(=O)O)c3ccccc3)c2C1 [Compound 38] | 0.001 to 0.01 µM
COC(=O)N1CCc2ccc3c(nc(-c4ccc(C(=O)O)cc4)n3[C@@H](C)Cc3ccccc3)c2C1 [Compound 77] | 0.001 to 0.01 µM
